The term EC50 denotes the concentration needed to bring the measured effect to its halfway point.

Read-outs that look alike come from different tables or passages of the source. A value given as a limit tells only on which side of the number the result lay.

The test deals with CFTR (Homo sapiens, UniProt P13569). Briefly: Membrane Potential Dye, Enteroid Assay A. Type of test: cell-based. The note with it: for EC50: read-out: Ent. A EC50. The method in brief:
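Signal is reported as % Activity relative to a triple CFTR modulator control (3 μM + 3 μM + 300 nM acute). Read-out: membrane potential fluorescence (20 μM methyl oxonol) monitored for 15 min after chloride-free stimulation. Dye loading took 25 min at room temperature in Bath 1 buffer containing CaCC blockers.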

Sequence of CFTR (P13569 with tags, fused parts or gaps DEL508-508): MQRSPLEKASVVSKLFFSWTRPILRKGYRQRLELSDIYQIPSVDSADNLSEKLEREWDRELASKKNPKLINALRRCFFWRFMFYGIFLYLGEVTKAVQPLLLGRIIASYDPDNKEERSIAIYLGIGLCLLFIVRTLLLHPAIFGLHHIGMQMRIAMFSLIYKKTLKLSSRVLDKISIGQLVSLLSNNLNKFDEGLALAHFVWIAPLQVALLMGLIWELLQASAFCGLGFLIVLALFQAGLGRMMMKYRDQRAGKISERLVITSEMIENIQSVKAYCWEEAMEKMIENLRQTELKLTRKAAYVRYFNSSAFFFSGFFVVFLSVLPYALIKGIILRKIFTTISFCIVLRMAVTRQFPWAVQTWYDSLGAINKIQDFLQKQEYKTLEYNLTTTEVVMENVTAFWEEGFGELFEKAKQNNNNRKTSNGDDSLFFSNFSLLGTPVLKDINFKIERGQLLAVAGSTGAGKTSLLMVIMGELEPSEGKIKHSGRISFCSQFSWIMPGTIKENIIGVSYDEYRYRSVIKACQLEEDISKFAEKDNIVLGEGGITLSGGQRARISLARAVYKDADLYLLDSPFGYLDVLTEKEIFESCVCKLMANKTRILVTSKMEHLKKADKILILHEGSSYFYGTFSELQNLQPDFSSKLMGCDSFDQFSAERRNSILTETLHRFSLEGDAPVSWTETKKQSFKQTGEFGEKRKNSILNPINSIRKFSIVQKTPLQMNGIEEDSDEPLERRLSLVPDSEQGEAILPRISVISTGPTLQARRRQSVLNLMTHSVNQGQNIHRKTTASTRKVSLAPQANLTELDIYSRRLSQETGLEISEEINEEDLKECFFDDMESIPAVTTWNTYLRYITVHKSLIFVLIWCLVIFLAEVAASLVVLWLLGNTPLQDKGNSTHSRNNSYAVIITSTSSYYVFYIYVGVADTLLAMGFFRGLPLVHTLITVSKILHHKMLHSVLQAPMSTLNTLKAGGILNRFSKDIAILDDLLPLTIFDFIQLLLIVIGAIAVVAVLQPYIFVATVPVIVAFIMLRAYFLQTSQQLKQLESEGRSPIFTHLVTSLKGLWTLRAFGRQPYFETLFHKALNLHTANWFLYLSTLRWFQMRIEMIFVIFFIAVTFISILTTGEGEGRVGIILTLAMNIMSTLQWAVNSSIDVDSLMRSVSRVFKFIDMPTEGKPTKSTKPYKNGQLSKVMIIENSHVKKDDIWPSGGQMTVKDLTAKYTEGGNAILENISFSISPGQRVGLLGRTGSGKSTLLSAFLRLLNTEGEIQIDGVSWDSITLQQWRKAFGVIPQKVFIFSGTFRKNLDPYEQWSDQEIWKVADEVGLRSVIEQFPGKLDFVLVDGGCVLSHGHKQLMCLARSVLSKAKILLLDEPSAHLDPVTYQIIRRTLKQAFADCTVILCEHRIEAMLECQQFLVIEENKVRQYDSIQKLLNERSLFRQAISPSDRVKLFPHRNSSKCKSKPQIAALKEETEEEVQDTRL

In the case of `CCC(CC)(CC)c1ccc([C@@H]2CNC(=O)c3cccc(c3)S(=O)(=O)Nc3nc(cc(-c4c(C)cccc4C)n3)O2)cc1` [Compound 258], under “Table 9”, the “Ent. A Max Activity” value is recorded as “+++ (+++ is >60%)” and the EC50 was below 1000 nM.
Taken in the same sequence, the figures for `CCC(CC)(CC)c1ccc([C@@H]2CNC(=O)c3cccc(c3)S(=O)(=O)Nc3nc(cc(-c4c(C)cccc4C)n3)O2)cc1` [Compound 259] were “+ (+ is <30%)” and below 1000 nM.
Taken in the same sequence, the figures for `Cc1cccc(C)c1-c1cc2nc(n1)NS(=O)(=O)c1cccc(c1)C(=O)NC[C@@H](c1ccc(C3CC3)cc1)O2` [Compound 260] were “+++ (+++ is >60%)” and below 1000 nM.
For `Cc1cccc(C)c1-c1cc2nc(n1)NS(=O)(=O)c1cccc(c1)C(=O)NC[C@@H](c1ccc(C3CC3)cc1)O2` [Compound 261], in that order: “++ (++ is 30-60%)” and 1000 to 3000 nM.
For the compound `Cc1cccc(C)c1-c1cc2nc(n1)NS(=O)(=O)c1cccc(c1)C(=O)NC[C@@H](c1ccc(C(C)(C)C(F)(F)F)cc1)O2` [Compound 262], for the setting “Table 9”, the “Ent. A Max Activity” value is on record as “+++ (+++ is >60%)” and the EC50 is below 1000 nM.
Regarding `Cc1cccc(C)c1-c1cc2nc(n1)NS(=O)(=O)c1cccc(c1)C(=O)NCC(c1ccc(CC(C)(C)C)cc1)O2` (stereo not drawn) [Compound 264], under “Table 9”, the “Ent. A Max Activity” value was “+ (+ is <30%)” and the EC50 was below 1000 nM.
For `Cc1cccc(C)c1-c1cc2nc(n1)NS(=O)(=O)c1cccc(c1)C(=O)NCC(c1ccc(C3(C)CC3)cc1)O2` (stereo not drawn) [Compound 265], in that order: “++ (++ is 30-60%)” and below 1000 nM.
Taken in the same sequence, the figures for `CCC(CC)(CC)c1ccc(C2CNC(=O)c3cccc(c3)S(=O)(=O)Nc3nc(cc(-c4c(C)cccc4C)n3)O2)cc1` (stereo not drawn) [Compound 266] were “++ (++ is 30-60%)” and below 1000 nM.
As to `Cc1cccc(C)c1-c1cc2nc(n1)NS(=O)(=O)c1cccc(c1)C(=O)NCC(c1ccc(CC(C)(C)C)cc1)O2` (stereo not drawn) [Compound 267], for the setting “Table 8”, the “Ent. A Max Activity” value was “+++ (+++ is >60%)” and the EC50 was below 1000 nM.
For `Cc1cccc(C)c1-c1cc2nc(n1)NS(=O)(=O)c1cccc(c1)C(=O)NCC(c1ccc(C3CC3)cc1)O2` (stereo not drawn) [Compound 268], in that order: “+++ (+++ is >60%)” and below 1000 nM.
For `Cc1cccc(C)c1-c1cc2nc(n1)NS(=O)(=O)c1cccc(c1)C(=O)NC[C@@H](c1cccc(C(C)(C)C)c1)O2` [Compound 273], in that order: “+++ (+++ is >60%)” and below 1000 nM.
On to `Cc1cccc(C)c1-c1cc2nc(n1)NS(=O)(=O)c1cccc(c1)C(=O)NCC(c1ccc(C(C)C)cc1)O2` (stereo not drawn) [Compound 275], for which the EC50 (Table 8) was below 1000 nM.
The same measure, in the same setting: the figure for `Cc1ccccc1[C@@H]1CNC(=O)c2cccc(c2)S(=O)(=O)Nc2nc(cc(-c3c(C)cccc3C)n2)O1` [Compound 276] is below 1000 nM; for `Cc1cccc(C)c1-c1cc2nc(n1)NS(=O)(=O)c1cccc(c1)C(=O)NCC(c1ccccc1C(C)(C)C)O2` (stereo not drawn) [Compound 278] it is below 1000 nM.
Regarding `Cc1ccccc1C1CNC(=O)c2cccc(c2)S(=O)(=O)Nc2nc(cc(-c3c(C)cccc3C)n2)O1` (stereo not drawn) [Compound 279], for the setting “Table 8”, the “Ent. A Max Activity” value is on record as “+++ (+++ is >60%)” and the EC50 was below 1000 nM.
For the compound `COc1ccccc1C1CNC(=O)c2cccc(c2)S(=O)(=O)Nc2nc(cc(-c3c(C)cccc3C)n2)O1` (stereo not drawn) [Compound 280], under “Table 8”, the “Ent. A Max Activity” value is “+++ (+++ is >60%)” and the EC50 is below 1000 nM.
Taken in the same sequence, the figures for `Cc1cccc(C)c1-c1cc2nc(n1)NS(=O)(=O)c1cccc(c1)C(=O)NCC(C1CCCCC1)O2` (stereo not drawn) [Compound 281] were “+++ (+++ is >60%)” and below 1000 nM.
For the compound `Cc1cccc(C)c1-c1cc2nc(n1)NS(=O)(=O)c1ccccc1C(=O)N[C@H](C)[C@@H](c1ccc(C(C)(C)C)cc1)O2` [Compound 282], the “Ent. A Max Activity” value (Table 9) is listed as “+ (+ is <30%)”.
Consider `Cc1cccc(C)c1-c1cc2nc(n1)NS(=O)(=O)c1cccc(c1)C(=O)NCC(C1CCC(C)(C)CC1)O2` (stereo not drawn) [Compound 283], for which, for the setting “Table 9”, the “Ent. A Max Activity” value is reported as “+++ (+++ is >60%)” and the EC50 is below 1000 nM.
Consider `Cc1cccc(C)c1-c1cc2nc(n1)NS(=O)(=O)c1cccc(c1)C(=O)NCC(c1cnc(C(C)(C)C)nc1)O2` (stereo not drawn) [Compound 285], for which the “Ent. A Max Activity” value (Table 8) was “+ (+ is <30%)”.
As for `Cc1cccc(C)c1-c1cc2nc(n1)NS(=O)(=O)c1cccc(c1)CN[C@H](CC1CCCCC1)CO2` [Compound 286], where the note is “Table 8”, the “Ent. A Max Activity” value is on record as “+ (+ is <30%)” and the EC50 lay within 3000 to 30000 nM.
For `Cc1cccc(C)c1-c1cc2nc(n1)NS(=O)(=O)c1cccc(c1)C(=O)N[C@@H](CC1(C(F)(F)F)CC1)CO2` [Compound 288], in that order: “+++ (+++ is >60%)” and below 1000 nM.
For `Cc1cccc(C)c1-c1cc2nc(n1)NS(=O)(=O)c1cccc(c1)C(=O)N[C@@H](c1ccccc1)CCO2` [Compound 290], the EC50 (Table 8) is 1000 to 3000 nM.
As for `Cc1cccc(C)c1-c1cc2cc(n1)NS(=O)(=O)c1cccc(c1)C(=O)N[C@H](CC(C)C)CO2` [Compound 296], where the note is “Table 8”, the “Ent. A Max Activity” value was “+++ (+++ is >60%)” and the EC50 was below 1000 nM.
Turning to `Cc1cccc(C)c1-c1cc2nc(n1)NS(=O)(=O)c1cccc(c1)C(=O)NCC(C#CC(C)(C)C)O2` (stereo not drawn) [Compound 297], for the setting “Table 9”, the “Ent. A Max Activity” value is “++ (++ is 30-60%)” and the EC50 is below 1000 nM.
Consider `CC(C)C[C@@H]1COc2cc(C3C(C)CCCC3C)nc(n2)NS(=O)(=O)c2cccc(c2)C(=O)N1` (stereo partly drawn) [Compound 300], for which the EC50 (Table 8) was below 1000 nM.
Regarding `CC(C)C[C@@H]1COc2cc(C3C(C)CCCC3C)nc(n2)NS(=O)(=O)c2cccc(c2)C(=O)N1` (stereo partly drawn) [Compound 301], the EC50 (Table 8) is 3000 to 30000 nM.
Take `COc1ccc(C)c(-c2cc3nc(n2)NS(=O)(=O)c2cccc(c2)C(=O)N[C@H](CC(C)C)CO3)c1` [Compound 302]: for the setting “Table 8”, the “Ent. A Max Activity” value is “+++ (+++ is >60%)” and the EC50 was 1000 to 3000 nM.
For `COc1cccc(C)c1-c1cc2nc(n1)NS(=O)(=O)c1cccc(c1)C(=O)N[C@H](CC1CCCCC1)CO2` [Compound 303], in that order: “+ (+ is <30%)” and below 1000 nM.
For `COc1cccc(C)c1-c1cc2nc(n1)NS(=O)(=O)c1cccc(c1)C(=O)N[C@H](CC(C)(C)C)CO2` [Compound 304], in that order: “+++ (+++ is >60%)” and 1000 to 3000 nM.
In the case of `CC(C)C[C@@H]1COc2cc(-n3ccc(OCCC4(C(F)(F)F)CC4)n3)nc(n2)NS(=O)(=O)c2cccc(c2)C(=O)N1` [Compound 306], where the note is “Table 8”, the “Ent. A Max Activity” value was “+ (+ is <30%)”.
The same measure, in the same setting: next, `CC(C)C[C@@H]1COc2cc(-n3nccc3C(C)C)nc(n2)NS(=O)(=O)c2cccc(c2)C(=O)N1` [Compound 307]: “+ (+ is <30%)”; `CC(C)C[C@@H]1COc2cc(-n3ccc(C(F)(F)F)n3)nc(n2)NS(=O)(=O)c2cccc(c2)C(=O)N1` [Compound 308]: “+ (+ is <30%)”.
Same read-out and setting: next, `CC(C)C[C@@H]1COc2cc(N3C(C)CCC3C)nc(n2)NS(=O)(=O)c2cccc(c2)C(=O)N1` (stereo partly drawn) [Compound 309]: “+ (+ is <30%)”.
Consider `CCC1CCC(c2cc3nc(n2)NS(=O)(=O)c2cccc(c2)C(=O)N[C@H](CC(C)C)CO3)CC1` (stereo partly drawn) [Compound 310], for which the EC50 (Table 8) was below 1000 nM.
With `CC(C)C[C@@H]1COc2cc(C3CC4CCC3(C)C4(C)C)nc(n2)NS(=O)(=O)c2cccc(c2)C(=O)N1` (stereo partly drawn) [Compound 311], the EC50 (Table 8) is below 1000 nM.
Still for that read-out and setting: next, `CC(C)C[C@@H]1COc2cc(C3CCCCO3)nc(n2)NS(=O)(=O)c2cccc(c2)C(=O)N1` (stereo partly drawn) [Compound 313]: 3000 to 30000 nM.
Consider `CC(C)C[C@@H]1COc2cc(C3CCOCC3)nc(n2)NS(=O)(=O)c2cccc(c2)C(=O)N1` [Compound 314], for which, where the note is “Table 8”, the “Ent. A Max Activity” value is recorded as “+ (+ is <30%)” and the EC50 lay in the range of 3000 to 30000 nM.
With `CC(C)C[C@@H]1COc2cc(C3=CC(C)CC3(C)C)nc(n2)NS(=O)(=O)c2cccc(c2)C(=O)N1` (stereo partly drawn) [Compound 320], where the note is “Enteroid Assay A”, the “Ent. A Max Activity” value is “++ (++ is 30-60%)” and the EC50 was below 1000 nM.
On to `CC(C)C[C@@H]1COc2cc(C3=CCCC3)nc(n2)NS(=O)(=O)c2cccc(c2)C(=O)N1` [Compound 321], for which, under “Enteroid Assay A”, the EC50 lay within 3000 to 30000 nM.
As for `CCC1CC=C(c2cc3nc(n2)NS(=O)(=O)c2cccc(c2)C(=O)N[C@H](CC(C)C)CO3)CC1` (stereo partly drawn) [Compound 322], under “Enteroid Assay A”, the “Ent. A Max Activity” value was “++ (++ is 30-60%)” and the EC50 fell in the range of 1000 to 3000 nM.
With `CC(C)C[C@@H]1COc2cc(C3=CCC(C)(C)CC3)nc(n2)NS(=O)(=O)c2cccc(c2)C(=O)N1` [Compound 323], where the note is “Enteroid Assay A”, the “Ent. A Max Activity” value is “++ (++ is 30-60%)” and the EC50 lay within 1000 to 3000 nM.
Taken in the same sequence, the figures for `CC(C)C[C@@H]1COc2cc(C3=CCC(C)CC3)nc(n2)NS(=O)(=O)c2cccc(c2)C(=O)N1` (stereo partly drawn) [Compound 324] were “++ (++ is 30-60%)” and 1000 to 3000 nM.
For `CC(C)C[C@@H]1COc2cc(C3=CCCCC3)nc(n2)NS(=O)(=O)c2cccc(c2)C(=O)N1` [Compound 327], in that order: “++ (++ is 30-60%)” and 1000 to 3000 nM.
Taken in the same sequence, the figures for `CCOc1ccccc1-c1cc2nc(n1)NS(=O)(=O)c1cccc(c1)C(=O)N[C@H](CC(C)C)CO2` [Compound 328] were “++ (++ is 30-60%)” and 1000 to 3000 nM.
`COc1ccccc1-c1cc2nc(n1)NS(=O)(=O)c1cccc(c1)C(=O)N[C@H](CC(C)C)CO2` [Compound 330]: the “Ent. A Max Activity” value (Enteroid Assay A) is recorded as “++ (++ is 30-60%)”.
As for `CC(C)COc1cccc(-c2cc3nc(n2)NS(=O)(=O)c2cccc(c2)C(=O)N[C@H](CC(C)C)CO3)c1` [Compound 331], the EC50 (Enteroid Assay A) lay in the range of 1000 to 3000 nM.
For `CC(C)C[C@@H]1COc2cc(-c3ccccc3CC(C)(C)C)nc(n2)NS(=O)(=O)c2cccc(c2)C(=O)N1` [Compound 332], for the setting “Enteroid Assay A”, the “Ent. A Max Activity” value is recorded as “++ (++ is 30-60%)” and the EC50 is below 1000 nM.

These data come from patent US20230382924A1, “MODULATORS OF CYSTIC FIBROSIS TRANSMEMBRANE CONDUCTANCE REGULATOR” (VERTEX PHARMACEUTICALS INCORPORATED, priority 2020, published 2023).
